ChEMBL document CHEMBL3045205, “Synthesis and Fungicidal Activities of [2-(2, 5-Dimethylphenoxymethyl)--methoxyiminobenzyl]-isoxazole Derivatives” (J Pestic Sci, 1999)

Columns and labels:
Type in all cases: functional
[1] = test system: Blumeria graminis f. sp. tritici; assay: Fungicidal activity against Blumeria graminis f. sp. tritici inoculated on wheat seedlings pre-treated with compound 24 hr before fungal inoculation assessed as inhibition of wheat powdery mildew disease at 500 ppm measured after 10 days under greenhouse conditions relative to untreated control
Podosphaera fuliginea [2] = assay: Fungicidal activity against Podosphaera fuliginea inoculated on cucumber plants pre-treated with compound 24 hr before fungal inoculation assessed as inhibition of cucumber powdery mildew disease at 31.3 ppm measured after 10 days under greenhouse conditions relative to untreated control
[3] = test system: Blumeria graminis f. sp. tritici; assay: Fungicidal activity against Blumeria graminis f. sp. tritici inoculated on wheat seedlings pre-treated with compound 24 hr before fungal inoculation assessed as inhibition of wheat powdery mildew disease at 7.8 ppm measured after 10 days under greenhouse conditions relative to untreated control
Podosphaera fuliginea [4] = assay: Fungicidal activity against Podosphaera fuliginea inoculated on cucumber plants pre-treated with compound 24 hr before fungal inoculation assessed as inhibition of cucumber powdery mildew disease at 7.8 ppm measured after 10 days under greenhouse conditions relative to untreated control
Puccinia coronata [5] = assay: Fungicidal activity against Puccinia coronata inoculated in oat leaves treated with compound 24 hr after fungal inoculation assessed as inhibition of oat crown rust disease at 31.3 ppm measured after 9 days under greenhouse conditions relative to untreated control
Puccinia coronata [6] = assay: Fungicidal activity against Puccinia coronata inoculated in oat leaves pre-treated with compound 24 hr before fungal inoculation assessed as inhibition of oat crown rust disease at 7.8 ppm measured after 9 days under greenhouse conditions relative to untreated control
Puccinia coronata [7] = assay: Fungicidal activity against Puccinia coronata inoculated in oat leaves pre-treated with compound 24 hr before fungal inoculation assessed as inhibition of oat crown rust disease at 31.3 ppm measured after 9 days under greenhouse conditions relative to untreated control
Botrytis cinerea [8] = assay: Fungicidal activity against Botryotinia fuckeliana inoculated on cucumber leaves treated with compound 24 hr after fungal inoculation assessed as inhibition of cucumber gray mold disease at 7.8 ppm measured after 3 days under greenhouse conditions relative to untreated control
Pyricularia oryzae = assay: Inhibition of oxygen consumption in Magnaporthe oryzae submitochondrial particles using NADH substrate
Puccinia coronata [9] = assay: Fungicidal activity against Puccinia coronata inoculated in oat leaves treated with compound 24 hr after fungal inoculation assessed as inhibition of oat crown rust disease at 7.8 ppm measured after 9 days under greenhouse conditions relative to untreated control
Botrytis cinerea [10] = assay: Fungicidal activity against Botryotinia fuckeliana inoculated on cucumber leaves pre-treated with compound 24 hr before fungal inoculation assessed as inhibition of cucumber gray mold disease at 31.3 ppm measured after 3 days under greenhouse conditions relative to untreated control
Podosphaera fuliginea [11] = assay: Fungicidal activity against Podosphaera fuliginea inoculated on cucumber plants treated with compound 24 hr after fungal inoculation assessed as inhibition of cucumber powdery mildew disease at 31.3 ppm measured after 10 days under greenhouse conditions relative to untreated control
[12] = test system: Blumeria graminis f. sp. tritici; assay: Fungicidal activity against Blumeria graminis f. sp. tritici inoculated on wheat seedlings pre-treated with compound 24 hr before fungal inoculation assessed as inhibition of wheat powdery mildew disease at 31.3 ppm measured after 10 days under greenhouse conditions relative to untreated control
Botrytis cinerea [13] = assay: Fungicidal activity against Botryotinia fuckeliana inoculated on cucumber leaves treated with compound 24 hr after fungal inoculation assessed as inhibition of cucumber gray mold disease at 31.3 ppm measured after 3 days under greenhouse conditions relative to untreated control
Botrytis cinerea [14] = assay: Fungicidal activity against Botryotinia fuckeliana inoculated on cucumber leaves pre-treated with compound 24 hr before fungal inoculation assessed as inhibition of cucumber gray mold disease at 7.8 ppm measured after 3 days under greenhouse conditions relative to untreated control
[15] = test system: Blumeria graminis f. sp. tritici; assay: Fungicidal activity against Blumeria graminis f. sp. tritici inoculated on wheat seedlings treated with compound 24 hr after fungal inoculation assessed as inhibition of wheat powdery mildew disease at 7.8 ppm measured after 10 days under greenhouse conditions relative to untreated control
[16] = test system: Blumeria graminis f. sp. tritici; assay: Fungicidal activity against Blumeria graminis f. sp. tritici inoculated on wheat seedlings treated with compound 24 hr after fungal inoculation assessed as inhibition of wheat powdery mildew disease at 31.3 ppm measured after 10 days under greenhouse conditions relative to untreated control
Podosphaera fuliginea [17] = assay: Fungicidal activity against Podosphaera fuliginea inoculated on cucumber plants treated with compound 24 hr after fungal inoculation assessed as inhibition of cucumber powdery mildew disease at 7.8 ppm measured after 10 days under greenhouse conditions relative to untreated control
Podosphaera fuliginea [18] = assay: Fungicidal activity against Podosphaera fuliginea inoculated on cucumber plants pre-treated with compound 24 hr before fungal inoculation assessed as inhibition of cucumber powdery mildew disease at 500 ppm measured after 10 days under greenhouse conditions relative to untreated control
[19] = test system: Blumeria graminis f. sp. tritici; assay: Fungicidal activity against Blumeria graminis f. sp. tritici inoculated on wheat seedlings pre-treated with compound 24 hr before fungal inoculation assessed as inhibition of wheat powdery mildew disease at 125 ppm measured after 10 days under greenhouse conditions relative to untreated control

## CO/N=C(/c1cc(OC)on1)c1ccccc1COc1cc(C)ccc1C
[1]
  inhibition at 500 ppm: < 90%
Podosphaera fuliginea [2]
  inhibition at 31.3 ppm: 90%

## CO/N=C(\c1ccon1)c1ccccc1COc1cc(C)ccc1C
[3]
  inhibition at 7.8 ppm: 90%
Podosphaera fuliginea [2]
  inhibition at 31.3 ppm: 90%

## CON=C(c1ccon1)c1ccccc1COc1cc(C)ccc1C
[3]
  inhibition at 7.8 ppm: 90%
Podosphaera fuliginea [4]
  inhibition at 7.8 ppm: 90%

## CNC(=O)/C(=N/OC)c1ccccc1Oc1cc(C)ccc1C
Puccinia coronata [5]
  inhibition at 31.3 ppm: 100%
Puccinia coronata [6]
  inhibition at 7.8 ppm: 100%
Puccinia coronata [7]
  inhibition at 31.3 ppm: 100%
Botrytis cinerea [8]
  inhibition at 7.8 ppm: 40%
Pyricularia oryzae
  IC50: 18 nM
Puccinia coronata [9]
  inhibition at 7.8 ppm: 100%
Botrytis cinerea [10]
  inhibition at 31.3 ppm: 50%
Podosphaera fuliginea [11]
  inhibition at 31.3 ppm: 100%
[12]
  inhibition at 31.3 ppm: 100%
[3]
  inhibition at 7.8 ppm: 100%
Podosphaera fuliginea [2]
  inhibition at 31.3 ppm: 100%
Podosphaera fuliginea [4]
  inhibition at 7.8 ppm: 100%
Botrytis cinerea [13]
  inhibition at 31.3 ppm: 50%
Botrytis cinerea [14]
  inhibition at 7.8 ppm: 40%
[15]
  inhibition at 7.8 ppm: 97%
[16]
  inhibition at 31.3 ppm: 97%
Podosphaera fuliginea [17]
  inhibition at 7.8 ppm: 100%

## CO/N=C(/C1=NOC(C)(C)C1)c1ccccc1COc1cc(C)ccc1C
[1]
  inhibition at 500 ppm: < 90%
Podosphaera fuliginea [18]
  inhibition at 500 ppm: < 90%

## CON=C(c1cc(C)on1)c1ccccc1COc1cc(C)ccc1C
[12]
  inhibition at 31.3 ppm: 90%
Podosphaera fuliginea [4]
  inhibition at 7.8 ppm: 90%

## CO/N=C(\Cc1cc(C)no1)c1ccccc1COc1cc(C)ccc1C
[1]
  inhibition at 500 ppm: < 90%
Podosphaera fuliginea [18]
  inhibition at 500 ppm: < 90%

## CO/N=C(\c1ccccc1COc1cc(C)ccc1C)c1c(C)noc1C
[1]
  inhibition at 500 ppm: < 90%
Podosphaera fuliginea [18]
  inhibition at 500 ppm: 90%

## CCc1cc(/C(=N/OC)c2ccccc2COc2cc(C)ccc2C)on1
[1]
  inhibition at 500 ppm: < 90%
Podosphaera fuliginea [18]
  inhibition at 500 ppm: 90%

## CO/N=C(/c1ccon1)c1ccccc1COc1cc(C)ccc1C
Puccinia coronata [5]
  inhibition at 31.3 ppm: 70%
Puccinia coronata [6]
  inhibition at 7.8 ppm: 90%
Puccinia coronata [7]
  inhibition at 31.3 ppm: 97%
Botrytis cinerea [8]
  inhibition at 7.8 ppm: 30%
Pyricularia oryzae
  IC50: 103 nM
Puccinia coronata [9]
  inhibition at 7.8 ppm: 30%
Botrytis cinerea [10]
  inhibition at 31.3 ppm: 40%
Podosphaera fuliginea [11]
  inhibition at 31.3 ppm: 100%
[12]
  inhibition at 31.3 ppm: 97%
[3]
  inhibition at 7.8 ppm: 97%
Podosphaera fuliginea [2]
  inhibition at 31.3 ppm: 100%
Podosphaera fuliginea [4]
  inhibition at 7.8 ppm: 100%
Botrytis cinerea [13]
  inhibition at 31.3 ppm: 30%
Botrytis cinerea [14]
  inhibition at 7.8 ppm: 20%
[15]
  inhibition at 7.8 ppm: 90%
[16]
  inhibition at 31.3 ppm: 97%
Podosphaera fuliginea [17]
  inhibition at 7.8 ppm: 100%

## CO/N=C(/c1cc(C)no1)c1ccccc1COc1cc(C)ccc1C
[12]
  inhibition at 31.3 ppm: 90%
Podosphaera fuliginea [4]
  inhibition at 7.8 ppm: 90%

## CO/N=C(\c1ccccc1COc1cc(C)ccc1C)C1CC(C)=NO1 (configuration not stated)
[1]
  inhibition at 500 ppm: < 90%
Podosphaera fuliginea [2]
  inhibition at 31.3 ppm: 90%

## CON=C(C1=NOCC1)c1ccccc1COc1cc(C)ccc1C
[19]
  inhibition at 125 ppm: 90%
Podosphaera fuliginea [4]
  inhibition at 7.8 ppm: 90%

## CO/N=C(/C1=NOCC1)c1ccccc1COc1cc(C)ccc1C
Puccinia coronata [5]
  inhibition at 31.3 ppm: 50%
Puccinia coronata [6]
  inhibition at 7.8 ppm: 30%
Puccinia coronata [7]
  inhibition at 31.3 ppm: 90%
Botrytis cinerea [8]
  inhibition at 7.8 ppm: 0%
Puccinia coronata [9]
  inhibition at 7.8 ppm: 0%
Botrytis cinerea [10]
  inhibition at 31.3 ppm: 20%
Podosphaera fuliginea [11]
  inhibition at 31.3 ppm: 100%
[12]
  inhibition at 31.3 ppm: 90%
[3]
  inhibition at 7.8 ppm: 90%
Podosphaera fuliginea [2]
  inhibition at 31.3 ppm: 100%
Podosphaera fuliginea [4]
  inhibition at 7.8 ppm: 90%
Botrytis cinerea [13]
  inhibition at 31.3 ppm: 20%
Botrytis cinerea [14]
  inhibition at 7.8 ppm: 0%
[15]
  inhibition at 7.8 ppm: 70%
[16]
  inhibition at 31.3 ppm: 97%
Podosphaera fuliginea [17]
  inhibition at 7.8 ppm: 100%

## CO/N=C(\c1cc(C)no1)c1ccccc1COc1cc(C)ccc1C
Puccinia coronata [5]
  inhibition at 31.3 ppm: 100%
Puccinia coronata [6]
  inhibition at 7.8 ppm: 90%
Puccinia coronata [7]
  inhibition at 31.3 ppm: 97%
Botrytis cinerea [8]
  inhibition at 7.8 ppm: 0%
Pyricularia oryzae
  IC50: 46 nM
Puccinia coronata [9]
  inhibition at 7.8 ppm: 97%
Botrytis cinerea [10]
  inhibition at 31.3 ppm: 30%
Podosphaera fuliginea [11]
  inhibition at 31.3 ppm: 100%
[12]
  inhibition at 31.3 ppm: 97%
[3]
  inhibition at 7.8 ppm: 97%
Podosphaera fuliginea [2]
  inhibition at 31.3 ppm: 100%
Podosphaera fuliginea [4]
  inhibition at 7.8 ppm: 100%
Botrytis cinerea [13]
  inhibition at 31.3 ppm: 20%
Botrytis cinerea [14]
  inhibition at 7.8 ppm: 10%
[15]
  inhibition at 7.8 ppm: 70%
[16]
  inhibition at 31.3 ppm: 97%
Podosphaera fuliginea [17]
  inhibition at 7.8 ppm: 100%

## CO/N=C(/c1ccno1)c1ccccc1COc1cc(C)ccc1C
[12]
  inhibition at 31.3 ppm: 90%
Podosphaera fuliginea [2]
  inhibition at 31.3 ppm: 90%

## CO/N=C(/C1=NOC(C)C1)c1ccccc1COc1cc(C)ccc1C (configuration not stated)
[1]
  inhibition at 500 ppm: 90%
Podosphaera fuliginea [2]
  inhibition at 31.3 ppm: 90%

## CO/N=C(/c1cc(C)on1)c1ccccc1COc1cc(C)ccc1C
[1]
  inhibition at 500 ppm: < 90%
Podosphaera fuliginea [2]
  inhibition at 31.3 ppm: 90%

## CO/N=C(\c1ccno1)c1ccccc1COc1cc(C)ccc1C
[1]
  inhibition at 500 ppm: 90%
Podosphaera fuliginea [18]
  inhibition at 500 ppm: 90%
